# According to PMC5218480 (PLoS ONE, 2017):
# Tested on: MV-4-11 cells
# Assay: Gene expression microarray analysis (Affymetrix PrimeView) and GSEA
# Format: cell-based, human
# Set-up: RFU PODN (11730768_x_at) / Fold change /veh PODN (11730768_x_at) / RFU LINC00158 (11744669_a_at) / Fold change /veh LINC00158 (11744669_a_at) / RFU DUSP10 (11751237_a_at) / Fold change /veh DUSP10 (11751237_a_at) / RFU ID3 (11757404_x_at) / Fold change /veh ID3 (11757404_x_at) / RFU PLEKHG5 (11737974_s_at) / Fold change /veh PLEKHG5 (11737974_s_at) / RFU LRRC4B (11730491_at) / Fold change /veh LRRC4B (11730491_at) / RFU GIMAP4 (11747438_a_at) / Fold change /veh GIMAP4 (11747438_a_at) / RFU KRT8 (11758183_x_at) / Fold change /veh KRT8 (11758183_x_at) / RFU CNN1 (11734310_a_at) / Fold change /veh CNN1 (11734310_a_at) / RFU VPS37D (11726825_at) / Fold change /veh VPS37D (11726825_at) / RFU C10orf10 (11716522_x_at) / Fold change /veh C10orf10 (11716522_x_at) / RFU KIR2DL2 /// KIR2DL4 /// KIR2DL5A /// KIR2DL5B /// KIR2DS1 /// KIR2DS2 /// KIR2DS3 /// KIR2DS4 /// KIR3DL3 /// KIR3DL3 /// KIR3DS1 (11738374_at) / Fold change /veh KIR2DL2 /// KIR2DL4 /// KIR2DL5A /// KIR2DL5B /// KIR2DS1 /// KIR2DS2 /// KIR2DS3 /// KIR2DS4 /// KIR3DL3 /// KIR3DL3 /// KIR3DS1 (11738374_at) / RFU C1QL1 (11718748_at) / Fold change /veh C1QL1 (11718748_at) / RFU TMPRSS4 (11747572_a_at) / Fold change /veh TMPRSS4 (11747572_a_at) / RFU HAMP (11756126_x_at) / Fold change /veh HAMP (11756126_x_at) / RFU RNFT2 (11725882_a_at) / Fold change /veh RNFT2 (11725882_a_at) / RFU NR4A2 (11747474_a_at) / Fold change /veh NR4A2 (11747474_a_at) / RFU ABCC12 (11746883_a_at) / Fold change /veh ABCC12 (11746883_a_at) / RFU TMEM136 (11760407_x_at) / Fold change /veh TMEM136 (11760407_x_at) / RFU CLDN22 /// WWC2 (11732394_at) / Fold change /veh CLDN22 /// WWC2 (11732394_at) / RFU HLA-DPB1 (11760878_x_at) / Fold change /veh HLA-DPB1 (11760878_x_at) / RFU SPINT1 (11716480_a_at) / Fold change /veh SPINT1 (11716480_a_at) / RFU GAP43 (11754022_s_at) / Fold change /veh GAP43 (11754022_s_at) / RFU A4GNT (11735810_at) / Fold change /veh A4GNT (11735810_at) / RFU PRB3 (11715151_x_at) / Fold change /veh PRB3 (11715151_x_at) / RFU TUBB4B (11761932_at) / Fold change /veh TUBB4B (11761932_at) / RFU CAPN14 (11732068_a_at) / Fold change /veh CAPN14 (11732068_a_at) / RFU TMCC2 (11721928_a_at) / Fold change /veh TMCC2 (11721928_a_at) / RFU IRGQ (11745062_a_at) / Fold change /veh IRGQ (11745062_a_at) / RFU FAM174B (11720279_a_at) / Fold change /veh FAM174B (11720279_a_at) / RFU TMPRSS4 (11748680_a_at) / Fold change /veh TMPRSS4 (11748680_a_at) / RFU FAM212B (11763350_a_at) / Fold change /veh FAM212B (11763350_a_at) / RFU PLEKHG5 (11743358_a_at) / Fold change /veh PLEKHG5 (11743358_a_at) / RFU ZSCAN30 (11745921_a_at) / Fold change /veh ZSCAN30 (11745921_a_at) / RFU CMKLR1 (11741424_a_at) / Fold change /veh CMKLR1 (11741424_a_at) / RFU LOC101060620 /// MAPK8IP1 (11723275_at) / Fold change /veh LOC101060620 /// MAPK8IP1 (11723275_at) / RFU SPTSSB (11747773_x_at) / Fold change /veh SPTSSB (11747773_x_at) / RFU PRSS12 (11739890_at) / Fold change /veh PRSS12 (11739890_at) / RFU BIN1 (11741810_x_at) / Fold change /veh BIN1 (11741810_x_at) / RFU WNT11 (11732464_a_at) / Fold change /veh WNT11 (11732464_a_at) / RFU C10orf10 (11716521_a_at) / Fold change /veh C10orf10 (11716521_a_at) / RFU C5orf56 (11738089_at) / Fold change /veh C5orf56 (11738089_at) / RFU CYB561 (11721691_x_at) / Fold change /veh CYB561 (11721691_x_at) / RFU ANKRD19P (11752326_a_at) / Fold change /veh ANKRD19P (11752326_a_at) / RFU OR2T12 /// OR2T33 /// OR2T8 (11738714_s_at) / Fold change /veh OR2T12 /// OR2T33 /// OR2T8 (11738714_s_at) / RFU VCAN (11748164_a_at) / Fold change /veh VCAN (11748164_a_at) / RFU JSRP1 (11732532_at) / Fold change /veh JSRP1 (11732532_at) / RFU KRTAP10-11 (11738290_x_at) / Fold change /veh KRTAP10-11 (11738290_x_at) / RFU MYO3A (11730013_a_at) / Fold change /veh MYO3A (11730013_a_at) / RFU EBF3 (11725865_a_at) / Fold change /veh EBF3 (11725865_a_at) / RFU CAMK2N1 (11719241_x_at) / Fold change /veh CAMK2N1 (11719241_x_at) / RFU C5orf56 (11738088_a_at) / Fold change /veh C5orf56 (11738088_a_at) / RFU OLFML3 (11715873_a_at) / Fold change /veh OLFML3 (11715873_a_at) / RFU LOC100653217 /// NTM (11731650_a_at) / Fold change /veh LOC100653217 /// NTM (11731650_a_at) / RFU MAPK11 (11762145_a_at) / Fold change /veh MAPK11 (11762145_a_at) / RFU FIZ1 (11724087_x_at) / Fold change /veh FIZ1 (11724087_x_at) / RFU OASL (11726364_x_at) / Fold change /veh OASL (11726364_x_at) / RFU SOX15 (11748057_x_at) / Fold change /veh SOX15 (11748057_x_at) / RFU CD79A (11719716_a_at) / Fold change /veh CD79A (11719716_a_at) / RFU HIST1H1D (11736915_at) / Fold change /veh HIST1H1D (11736915_at) / RFU CASKIN2 (11723855_a_at) / Fold change /veh CASKIN2 (11723855_a_at) / RFU LOC730098 (11760151_x_at) / Fold change /veh LOC730098 (11760151_x_at) / RFU OR4N2 (11742367_at) / Fold change /veh OR4N2 (11742367_at) / RFU PRRT2 (11749266_a_at) / Fold change /veh PRRT2 (11749266_a_at) / RFU SNX32 (11753110_a_at) / Fold change /veh SNX32 (11753110_a_at) / RFU CDHR5 (11726645_a_at) / Fold change /veh CDHR5 (11726645_a_at) / RFU RCAN1 (11760418_a_at) / Fold change /veh RCAN1 (11760418_a_at) / RFU FAM167A (11723789_a_at) / Fold change /veh FAM167A (11723789_a_at) / RFU FAM26E (11764081_at) / Fold change /veh FAM26E (11764081_at) / RFU ISYNA1 (11749810_s_at) / Fold change /veh ISYNA1 (11749810_s_at) / RFU ACY1 (11761880_at) / Fold change /veh ACY1 (11761880_at) / RFU 11764098_at / Fold change /veh 11764098_at / RFU SAMD14 (11745864_x_at) / Fold change /veh SAMD14 (11745864_x_at) / RFU NPB (11741838_a_at) / Fold change /veh NPB (11741838_a_at) / RFU TMPRSS6 (11731388_a_at) / Fold change /veh TMPRSS6 (11731388_a_at) / RFU KRTAP10-2 (11738614_at) / Fold change /veh KRTAP10-2 (11738614_at) / RFU ARHGAP8 /// PRR5-ARHGAP8 (11727945_x_at) / Fold change /veh ARHGAP8 /// PRR5-ARHGAP8 (11727945_x_at) / RFU KRTAP5-7 /// NADSYN1 (11734609_at) / Fold change /veh KRTAP5-7 /// NADSYN1 (11734609_at) / RFU RASL12 (11751679_a_at) / Fold change /veh RASL12 (11751679_a_at) / RFU CDKN2B (11736163_a_at) / Fold change /veh CDKN2B (11736163_a_at) / RFU PRF1 (11729649_at) / Fold change /veh PRF1 (11729649_at) / RFU, ZNF638 /// ZNF638-IT1 / Fold change vs veh, ZNF638 /// ZNF638-IT1 / RFU, PANK3 / Fold change vs veh, PANK3 / RFU, SH3YL1 / Fold change vs veh, SH3YL1 / RFU, ZEB2 / Fold change vs veh, ZEB2 / RFU, NRIP1 / Fold change vs veh, NRIP1 / RFU, PTTG1IP / Fold change vs veh, PTTG1IP / RFU, CAPN2 / Fold change vs veh, CAPN2 / RFU, MED14 / Fold change vs veh, MED14 / RFU, SNORA58 / Fold change vs veh, SNORA58 / RFU, C1orf63 / Fold change vs veh, C1orf63 / RFU, LRRFIP1 / Fold change vs veh, LRRFIP1 / RFU, NDUFAF7 / Fold change vs veh, NDUFAF7 / RFU, SLC12A2 / Fold change vs veh, SLC12A2 / RFU, IBTK / Fold change vs veh, IBTK / RFU, ESF1 / Fold change vs veh, ESF1 / Fold change vs veh, TMEM50B / RFU, TAOK1 / Fold change vs veh, TAOK1 / RFU, ACBD3 / Fold change vs veh, ACBD3 / RFU, TMA16 / Fold change vs veh, TMA16 / RFU, RWDD3 / Fold change vs veh, RWDD3 / RFU, BCAT1 / Fold change vs veh, BCAT1 / RFU, EDEM3 / Fold change vs veh, EDEM3 / RFU, TMEM33 / Fold change vs veh, TMEM33 / RFU, WDR75 / Fold change vs veh, WDR75 / RFU, AHCTF1 / Fold change vs veh, AHCTF1 / RFU, TFRC / Fold change vs veh, TFRC / RFU, ZDHHC17 / Fold change vs veh, ZDHHC17 / RFU, NOM1 / Fold change vs veh, NOM1 / RFU, ARL8B / Fold change vs veh, ARL8B / RFU, ZBTB11 / Fold change vs veh, ZBTB11 / RFU, TAMM41 / Fold change vs veh, TAMM41 / RFU, KIAA1704 /// LOC100996395 / Fold change vs veh, KIAA1704 /// LOC100996395 / RFU, ING1 / Fold change vs veh, ING1 / RFU, TRMT61B / Fold change vs veh, TRMT61B / RFU, FUBP3 / Fold change vs veh, FUBP3 / RFU, TP53 / Fold change vs veh, TP53 / RFU, TNKS2 / Fold change vs veh, TNKS2 / RFU, ZFP14 / Fold change vs veh, ZFP14 / RFU, ACTR2 / Fold change vs veh, ACTR2 / RFU, PPP3R1 / Fold change vs veh, PPP3R1 / RFU, PIK3R1 / Fold change vs veh, PIK3R1 / RFU, HNRNPA1 / Fold change vs veh, HNRNPA1 / RFU, RNF170 / Fold change vs veh, RNF170 / RFU, ZNF28 / Fold change vs veh, ZNF28 / RFU, RNGTT / Fold change vs veh, RNGTT / RFU, OGT / Fold change vs veh, OGT / RFU, BRD1 / Fold change vs veh, BRD1 / RFU, MARS / Fold change vs veh, MARS / RFU, ZNF655 / Fold change vs veh, ZNF655 / RFU, FAHD1 / Fold change vs veh, FAHD1 / RFU, BDP1 / Fold change vs veh, BDP1 / RFU, LRRCC1 / Fold change vs veh, LRRCC1 / RFU, ARID1A / Fold change vs veh, ARID1A / RFU, ZNF146 / Fold change vs veh, ZNF146 / RFU, ZNF330 / Fold change vs veh, ZNF330 / RFU, GPN3 / Fold change vs veh, GPN3 / RFU, C9orf123 / Fold change vs veh, C9orf123 / RFU, N4BP2L2 / Fold change vs veh, N4BP2L2 / RFU, ARFIP1 / Fold change vs veh, ARFIP1 / RFU, FAM179B / Fold change vs veh, FAM179B / RFU, BCL10 / Fold change vs veh, BCL10 / RFU, UHRF1BP1L / Fold change vs veh, UHRF1BP1L / RFU, BET1 / Fold change vs veh, BET1 / RFU, CNOT2 / Fold change vs veh, CNOT2 / RFU, ZNF268 / Fold change vs veh, ZNF268 / Fold change vs veh, ZNF507 / RFU, DGCR2 / Fold change vs veh, DGCR2 / RFU, WDSUB1 / Fold change vs veh, WDSUB1 / Fold change vs veh, HSP90B1 /// MIR3652 / RFU, ADSS / Fold change vs veh, ADSS / RFU, GK / Fold change vs veh, GK / RFU, ZNF148 / Fold change vs veh, ZNF148 / RFU, TAF9 / Fold change vs veh, TAF9 / RFU, SLC1A5 / Fold change vs veh, SLC1A5 / RFU, SLMO2 / Fold change vs veh, SLMO2 / RFU, ABCC4 / Fold change vs veh, ABCC4 / RFU, LOC101060439 /// RAP1B / Fold change vs veh, LOC101060439 /// RAP1B / RFU, RFX7 / Fold change vs veh, RFX7 / RFU, GTPBP10 / Fold change vs veh, GTPBP10 / RFU, CNEP1R1 / Fold change vs veh, CNEP1R1 / RFU, BIVM-ERCC5 /// ERCC5 / Fold change vs veh, BIVM-ERCC5 /// ERCC5 / RFU, ILF3 / Fold change vs veh, ILF3 / RFU 11762660_at / Fold change /veh 11762660_at / RFU VCAN (11757783_s_at) / Fold change /veh VCAN (11757783_s_at) / RFU DDX43 (11728927_at) / Fold change /veh DDX43 (11728927_at) / RFU KRT8 (11758188_x_at) / Fold change /veh KRT8 (11758188_x_at) / RFU NKD1 (11759106_at) / Fold change /veh NKD1 (11759106_at) / RFU SRD5A1 (11742802_a_at) / Fold change /veh SRD5A1 (11742802_a_at) / RFU TPSAB1 /// TPSB2 (11721975_s_at) / Fold change /veh TPSAB1 /// TPSB2 (11721975_s_at) / RFU GSTM3 (11746129_a_at) / Fold change /veh GSTM3 (11746129_a_at) / RFU IL23R (11737362_x_at) / Fold change /veh IL23R (11737362_x_at) / RFU TMEM51 (11727254_a_at) / Fold change /veh TMEM51 (11727254_a_at) / RFU PIWIL2 (11732686_x_at) / Fold change /veh PIWIL2 (11732686_x_at) / RFU ORM1 (11744905_x_at) / Fold change /veh ORM1 (11744905_x_at) / RFU CCDC152 (11743942_at) / Fold change /veh CCDC152 (11743942_at) / RFU ECM1 (11717891_a_at) / Fold change /veh ECM1 (11717891_a_at) / RFU IL23R (11748794_a_at) / Fold change /veh IL23R (11748794_a_at) / RFU TNFAIP8L3 (11732012_x_at) / Fold change /veh TNFAIP8L3 (11732012_x_at) / RFU MBOAT4 (11741988_at) / Fold change /veh MBOAT4 (11741988_at) / RFU 11764193_at / Fold change /veh 11764193_at / RFU TMEM53 (11763286_at) / Fold change /veh TMEM53 (11763286_at) / RFU MAGEB2 (11727129_at) / Fold change /veh MAGEB2 (11727129_at) / RFU TMEM200A (11744735_a_at) / Fold change /veh TMEM200A (11744735_a_at) / RFU CCDC152 (11751479_a_at) / Fold change /veh CCDC152 (11751479_a_at) / RFU FAM211A (11726209_a_at) / Fold change /veh FAM211A (11726209_a_at) / RFU RGS16 (11746705_a_at) / Fold change /veh RGS16 (11746705_a_at) / RFU VCAN (11755009_s_at) / Fold change /veh VCAN (11755009_s_at) / RFU RHOB (11743442_s_at) / Fold change /veh RHOB (11743442_s_at) / RFU RGS16 (11720943_a_at) / Fold change /veh RGS16 (11720943_a_at) / RFU RGS16 (11720944_at) / Fold change /veh RGS16 (11720944_at) / RFU, VPS4B / Fold change vs veh, VPS4B / RFU, CREB1 / Fold change vs veh, CREB1 / RFU, DNAJC13 / Fold change vs veh, DNAJC13 / RFU, GNAQ / Fold change vs veh, GNAQ / RFU, CDK5R1 / Fold change vs veh, CDK5R1 / RFU, ZRANB3 / Fold change vs veh, ZRANB3 / RFU, CUL4A / Fold change vs veh, CUL4A / RFU, CCNY / Fold change vs veh, CCNY / RFU, UFL1 / Fold change vs veh, UFL1 / RFU, COG3 / Fold change vs veh, COG3 / RFU, DIAPH2 / Fold change vs veh, DIAPH2 / RFU, SKA2 / Fold change vs veh, SKA2 / RFU, AFF3 / Fold change vs veh, AFF3 / RFU, LMF1 / Fold change vs veh, LMF1 / RFU, IPO11 / Fold change vs veh, IPO11 / RFU, DFFB / Fold change vs veh, DFFB / RFU, FOXP1 / Fold change vs veh, FOXP1 / RFU, CARD8 / Fold change vs veh, CARD8 / RFU, STRN3 / Fold change vs veh, STRN3 / RFU, ADK / Fold change vs veh, ADK / RFU, RASSF2 / Fold change vs veh, RASSF2 / RFU, WIPF1 / Fold change vs veh, WIPF1 / RFU, LARP1B / Fold change vs veh, LARP1B / RFU, RASA1 / Fold change vs veh, RASA1 / RFU, RB1 / Fold change vs veh, RB1 / RFU, PPFIA1 / Fold change vs veh, PPFIA1 / RFU, MAT2A / Fold change vs veh, MAT2A / RFU, CCT5 / Fold change vs veh, CCT5 / RFU, WDR92 / Fold change vs veh, WDR92 / RFU, CUX1 / Fold change vs veh, CUX1 / RFU, TTC7A / Fold change vs veh, TTC7A / RFU, TMEM135 / Fold change vs veh, TMEM135 / RFU, DEPTOR / Fold change vs veh, DEPTOR / RFU, CPM / Fold change vs veh, CPM / RFU, DNAJB6 / Fold change vs veh, DNAJB6 / RFU, CACNA2D3 / Fold change vs veh, CACNA2D3 / RFU, DTX4 / Fold change vs veh, DTX4 / RFU, TFCP2 / Fold change vs veh, TFCP2 / RFU, GMCL1 /// GMCL1P1 / Fold change vs veh, GMCL1 /// GMCL1P1 / RFU, AEBP2 / Fold change vs veh, AEBP2 / RFU, SNHG1 /// SNORD22 /// SNORD25 /// SNORD26 /// SNORD27 /// SNORD28 /// SNORD29 /// SNORD31 / Fold change vs veh, SNHG1 /// SNORD22 /// SNORD25 /// SNORD26 /// SNORD27 /// SNORD28 /// SNORD29 /// SNORD31 / Fold change (Aza/veh), C12orf56 (ProbeSet 11735607_a_at) / Fold change (ACY-1035/veh), C12orf56 (ProbeSet 11735607_a_at) / Fold change (Aza/veh), FGFR1OP (ProbeSet 11751329_s_at) / Fold change (ACY-1035/veh), FGFR1OP (ProbeSet 11751329_s_at) / Fold change (Aza/veh), VPS36 (ProbeSet 11739960_a_at) / Fold change (ACY-1035/veh), VPS36 (ProbeSet 11739960_a_at) / RFU SYPL1 (11715823_x_at) / Fold change /veh SYPL1 (11715823_x_at) / RFU IGFBP7 (11715501_s_at) / Fold change /veh IGFBP7 (11715501_s_at) / RFU REEP3 (11722064_at) / Fold change /veh REEP3 (11722064_at) / RFU IGLL1 (11728026_x_at) / Fold change /veh IGLL1 (11728026_x_at): dose or concentration left out as unconfirmed
# Details: ProbeSet 11743882_a_at; LIST D
smiles,measurement,value
Nc1ncn([C@@H]2O[C@H](CO)[C@@H](O)[C@H]2O)c(=O)n1 [azacitidine],"RFU, STRN3",92.89 RFU
